According to EP4635500A1, “THERAPEUTIC AGENT FOR BACTERIAL INFECTION” (Sumitomo Pharma Co., Ltd., priority 2022, dated 2024):

Key:
Enterobacterales = assay: MIC, broth microdilution, CDC/FDA Antibiotic Resistance Isolate Bank (Example 7, Tables 8, 11, 12); assay type: cell-based
[1] = tested on: Metallo-β-lactamase producing strains (N = 27); assay: MIC50/MIC90 for carbapenemase-producing isolates (Example 5, Table 6); assay type: cell-based; design: MIC50: unit not given here
[2] = 154 strains of Enterobacterales
[3] = carbapenemase-producing Enterobacterales, Metallo-β-lactamase (N = 47)
[4] = carbapenemase-producing Enterobacterales, Serine carbapenemase (N=61)

Work on colistin yielded an MIC50 (Enterobacterales; [2]) of 0.5 µg/mL, an MIC80 (Enterobacterales; [2]) of 8 µg/mL and an MIC90 (Enterobacterales; [2]) of over 64 µg/mL. The MIC (Enterobacterales; Citrobacter fremidii, KUB No. 5613, AR Bank # 116) was 1 µg/mL, the MIC (Enterobacterales; Enterobacter aerogenes, KUB No. 5559, AR Bank # 62) was 8 µg/mL and the MIC (Enterobacterales; Enterobacter aerogenes, KUB No. 5571, AR Bank # 74) was 0.5 µg/mL. It also gave an MIC (Enterobacterales; Enterobacter cloacae KUB No. 5792, AR Bank #448) of 0.5 µg/mL, an MIC (Enterobacterales; Enterobacter cloacae KUB No. 5807, AR Bank #501) of 0.5 µg/mL and an MIC (Enterobacterales; Enterobacter cloacae KUB No. 5808, AR Bank #502) of 0.5 µg/mL. The MIC (Enterobacterales; Enterobacter cloacae complex, KUB No. 5661, AR Bank # 164) was 0.5 µg/mL, the MIC (Enterobacterales; Enterobacter cloacae group, KUB No. 5629, AR Bank # 132) was 1 µg/mL and the MIC (Enterobacterales; Enterobacter cloacae, KUB No. 5529, AR Bank# 32) was 0.5 µg/mL. It also gave an MIC (Enterobacterales; Enterobacter cloacae, KUB No. 5535, AR Bank# 38) of 0.5 µg/mL, an MIC (Enterobacterales; Enterobacter cloacae, KUB No. 5557, AR Bank# 60) of 0.5 µg/mL and an MIC (Enterobacterales; Enterobacter cloacae, KUB No. 5562, AR Bank # 65) of 0.5 µg/mL. For the same substance, the MIC (Enterobacterales; Enterobacter cloacae, KUB No. 5570, AR Bank # 73) was 8 µg/mL, the MIC (Enterobacterales; Enterobacter cloacae, KUB No. 5590, AR Bank # 93) was 1 µg/mL and the MIC (Enterobacterales; Enterobacter cloacae, KUB No. 5660, AR Bank # 163) was 8 µg/mL. For the same substance, the MIC (Enterobacterales; Enterobacter cloacae, KUB No. 5761, AR Bank # 365) was 1 µg/mL, the MIC (Enterobacterales; Enterobacter cloacae, KUB No. 5763, AR Bank # 367) was 0.5 µg/mL and the MIC (Enterobacterales; Enterobacter cloacae, KUB No. 5778, AR Bank # 432) was 0.5 µg/mL. It also gave an MIC (Enterobacterales; Escherichia coli, KUB No. 5545, AR Bank# 48) of 0.5 µg/mL, an MIC (Enterobacterales; Escherichia coli, KUB No. 5552, AR Bank# 55) of 0.5 µg/mL and an MIC (Enterobacterales; Escherichia coli, KUB No. 5555, AR Bank# 58) of 0.5 µg/mL. It also gave an MIC (Enterobacterales; Escherichia coli, KUB No. 5564, AR Bank # 67) of 1 µg/mL, an MIC (Enterobacterales; Escherichia coli, KUB No. 5578, AR Bank # 81) of 0.5 µg/mL and an MIC (Enterobacterales; Escherichia coli, KUB No. 5581, AR Bank # 84) of 0.5 µg/mL. For the same substance, the MIC (Enterobacterales; Escherichia coli, KUB No. 5586, AR Bank # 89) was 0.5 µg/mL, the MIC (Enterobacterales; Escherichia coli, KUB No. 5601, AR Bank # 104) was 0.5 µg/mL and the MIC (Enterobacterales; Escherichia coli, KUB No. 5611, AR Bank # 114) was 0.5 µg/mL. It also gave an MIC (Enterobacterales; Escherichia coli, KUB No. 5615, AR Bank # 118) of 1 µg/mL, an MIC (Enterobacterales; Escherichia coli, KUB No. 5616, AR Bank # 119) of 0.5 µg/mL and an MIC (Enterobacterales; Escherichia coli, KUB No. 5764, AR Bank # 368) of 0.5 µg/mL. The MIC (Enterobacterales; Escherichia coli, KUB No. 5765, AR Bank # 369) was 0.5 µg/mL, the MIC (Enterobacterales; Escherichia coli, KUB No. 5768, AR Bank # 372) was 0.5 µg/mL and the MIC (Enterobacterales; Escherichia coli, KUB No. 5769, AR Bank # 373) was 0.5 µg/mL. It also gave an MIC (Enterobacterales; Escherichia coli, KUB No. 5770, AR Bank # 374) of 0.5 µg/mL, an MIC (Enterobacterales; Escherichia coli, KUB No. 5780, AR Bank # 434) of 0.5 µg/mL and an MIC (Enterobacterales; Escherichia, KUB No. 57, AR Bank # 436 (row cut off)) of 0.2 µg/mL. For the same substance, the MIC (Enterobacterales; Klebsiella oxytoca, KUB No. 5568, AR Bank # 71) was 0.5 µg/mL, the MIC (Enterobacterales; Klebsiella oxytoca, KUB No. 5776, AR Bank # 380) was 0.5 µg/mL and the MIC (Enterobacterales; Klebsiella ozaenae, KUB No. 5548, AR Bank# 51) was 0.5 µg/mL. It also gave an MIC (Enterobacterales; Klebsiella ozaenae, KUB No. 5593, AR Bank # 96) of 1 µg/mL, an MIC (Enterobacterales; Klebsiella pneumoniae KUB No. 5784, AR Bank #438) of 0.5 µg/mL and an MIC (Enterobacterales; Klebsiella pneumoniae KUB No. 5797, AR Bank #453) of 0.5 µg/mL. For the same substance, the MIC (Enterobacterales; Klebsiella pneumoniae KUB No. 5809, AR Bank #504) was 1 µg/mL, the MIC (Enterobacterales; Klebsiella pneumoniae KUB No. 5810, AR Bank #505) was 1 µg/mL and the MIC (Enterobacterales; Klebsiella pneumoniae KUB No. 5811, AR Bank #506) was 0.5 µg/mL. The MIC (Enterobacterales; Klebsiella pneumoniae KUB No. 5812, AR Bank #507) was 8 µg/mL, the MIC (Enterobacterales; Klebsiella pneumoniae KUB No. 5827, AR Bank #522) was 32 µg/mL and the MIC (Enterobacterales; Klebsiella pneumoniae KUB No. 5828, AR Bank #523) was 4 µg/mL. For the same substance, the MIC (Enterobacterales; Klebsiella pneumoniae KUB No. 5829, AR Bank #524) was 2 µg/mL, the MIC (Enterobacterales; Klebsiella pneumoniae KUB No. 5830, AR Bank #525) was 16 µg/mL and the MIC (Enterobacterales; Klebsiella pneumoniae, KUB No. 55, AR Bank# 47) was 64 µg/mL. It also gave an MIC (Enterobacterales; Klebsiella pneumoniae, KUB No. 5531, AR Bank# 34) of 0.5 µg/mL, an MIC (Enterobacterales; Klebsiella pneumoniae, KUB No. 5536, AR Bank# 39) of 0.5 µg/mL and an MIC (Enterobacterales; Klebsiella pneumoniae, KUB No. 5537, AR Bank# 40) of 4 µg/mL. It also gave an MIC (Enterobacterales; Klebsiella pneumoniae, KUB No. 5543, AR Bank# 46) of 4 µg/mL, an MIC (Enterobacterales; Klebsiella pneumoniae, KUB No. 5546, AR Bank# 49) of 0.5 µg/mL and an MIC (Enterobacterales; Klebsiella pneumoniae, KUB No. 5563, AR Bank # 66) of 0.5 µg/mL. For the same substance, the MIC (Enterobacterales; Klebsiella pneumoniae, KUB No. 5565, AR Bank # 68) was 1 µg/mL, the MIC (Enterobacterales; Klebsiella pneumoniae, KUB No. 5572, AR Bank # 75) was 0.5 µg/mL and the MIC (Enterobacterales; Klebsiella pneumoniae, KUB No. 5577, AR Bank # 80) was 0.5 µg/mL. The MIC (Enterobacterales; Klebsiella pneumoniae, KUB No. 5584, AR Bank # 87) was 64 µg/mL, the MIC (Enterobacterales; Klebsiella pneumoniae, KUB No. 5594, AR Bank # 97) was 8 µg/mL and the MIC (Enterobacterales; Klebsiella pneumoniae, KUB No. 5603, AR Bank # 106) was 32 µg/mL. For the same substance, the MIC (Enterobacterales; Klebsiella pneumoniae, KUB No. 5604, AR Bank # 107) was 0.5 µg/mL, the MIC (Enterobacterales; Klebsiella pneumoniae, KUB No. 5606, AR Bank # 109) was 32 µg/mL and the MIC (Enterobacterales; Klebsiella pneumoniae, KUB No. 5609, AR Bank # 112) was 0.5 µg/mL. For the same substance, the MIC (Enterobacterales; Klebsiella pneumoniae, KUB No. 5610, AR Bank # 113) was 0.5 µg/mL, the MIC (Enterobacterales; Klebsiella pneumoniae, KUB No. 5612, AR Bank # 115) was 1 µg/mL and the MIC (Enterobacterales; Klebsiella pneumoniae, KUB No. 5614, AR Bank # 117) was 1 µg/mL. It also gave an MIC (Enterobacterales; Klebsiella pneumoniae, KUB No. 5617, AR Bank # 120) of 1 µg/mL, an MIC (Enterobacterales; Klebsiella pneumoniae, KUB No. 5622, AR Bank # 125) of 16 µg/mL and an MIC (Enterobacterales; Klebsiella pneumoniae, KUB No. 5626, AR Bank # 129) of 0.5 µg/mL. The MIC (Enterobacterales; Klebsiella pneumoniae, KUB No. 5757, AR Bank # 361) was 0.5 µg/mL, the MIC (Enterobacterales; Klebsiella pneumoniae, KUB No. 5759, AR Bank # 363) was 0.5 µg/mL and the MIC (Enterobacterales; Klebsiella pneumoniae, KUB No. 5760, AR Bank # 364) was 64 µg/mL. For the same substance, the MIC (Enterobacterales; Klebsiella pneumoniae, KUB No. 5772, AR Bank # 376) was 0.5 µg/mL, the MIC (Enterobacterales; Proteus mirabilis, KUB No. 5775, AR Bank # 379) was 64 µg/mL and the MIC (Enterobacterales; Raoultella ornithinolvtica, KUB No. 5631, AR Bank # 134) was 8 µg/mL. It also gave an MIC (Enterobacterales; Salmonella Senftenberg, KUB No. 5624, AR Bank # 127) of 0.5 µg/mL, an MIC50 (Enterobacterales; [3]) of 0.5 µg/mL and an MIC90 (Enterobacterales; [3]) of 8 µg/mL. It also gave an MIC50 (Enterobacterales; [4]) of 0.5 µg/mL, an MIC90 (Enterobacterales; [4]) of over 64 µg/mL and an MIC90 (Enterobacterales; metallo-β-lactamase-producing strains of Enterobacterales) of 8 µg/mL. The MIC50 ([1]; Metallo-β-lactamase (N = 27): IMP-1 (12), IMP-6 (3), IMP-34 (1), NDM-1 (8), NDM-6 (1), VIM-1 (2)) was 0.25 and the MIC90 ([1]; metallo-β-lactamase-producing strains, combination: Compound A at a fixed concentration of 4 µg/mL) was 1 µg/mL.
